Data taken from PubChem BioAssay AID588741 (Johns Hopkins Ion Channel Center, 2011).
The source made the active and inactive calls.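 Rule for the calls: active = peak inhibition of the hERG potassium channel flux above 30% at some tested dose, plus a fitted dose response curve; inactive = no inhibition at any dose, or no curve.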

Each compound was assayed against Voltage-gated inwardly rectifying potassium channel KCNH2 (Homo sapiens) (UniProt Q12809) (assay: KCNH2 potassium flux blockade – cell-based, FluxOR thallium flux, CRC set 3, selectivity assay for KCNK9 inhibitor project, SAR follow-up (AID 588741)). Settings: hERG-expressing cells, FluxOR thallium flux fluorescence.
Voltage-gated inwardly rectifying potassium channel KCNH2 (Homo sapiens), sequence (Q12809 whole entry, looked up): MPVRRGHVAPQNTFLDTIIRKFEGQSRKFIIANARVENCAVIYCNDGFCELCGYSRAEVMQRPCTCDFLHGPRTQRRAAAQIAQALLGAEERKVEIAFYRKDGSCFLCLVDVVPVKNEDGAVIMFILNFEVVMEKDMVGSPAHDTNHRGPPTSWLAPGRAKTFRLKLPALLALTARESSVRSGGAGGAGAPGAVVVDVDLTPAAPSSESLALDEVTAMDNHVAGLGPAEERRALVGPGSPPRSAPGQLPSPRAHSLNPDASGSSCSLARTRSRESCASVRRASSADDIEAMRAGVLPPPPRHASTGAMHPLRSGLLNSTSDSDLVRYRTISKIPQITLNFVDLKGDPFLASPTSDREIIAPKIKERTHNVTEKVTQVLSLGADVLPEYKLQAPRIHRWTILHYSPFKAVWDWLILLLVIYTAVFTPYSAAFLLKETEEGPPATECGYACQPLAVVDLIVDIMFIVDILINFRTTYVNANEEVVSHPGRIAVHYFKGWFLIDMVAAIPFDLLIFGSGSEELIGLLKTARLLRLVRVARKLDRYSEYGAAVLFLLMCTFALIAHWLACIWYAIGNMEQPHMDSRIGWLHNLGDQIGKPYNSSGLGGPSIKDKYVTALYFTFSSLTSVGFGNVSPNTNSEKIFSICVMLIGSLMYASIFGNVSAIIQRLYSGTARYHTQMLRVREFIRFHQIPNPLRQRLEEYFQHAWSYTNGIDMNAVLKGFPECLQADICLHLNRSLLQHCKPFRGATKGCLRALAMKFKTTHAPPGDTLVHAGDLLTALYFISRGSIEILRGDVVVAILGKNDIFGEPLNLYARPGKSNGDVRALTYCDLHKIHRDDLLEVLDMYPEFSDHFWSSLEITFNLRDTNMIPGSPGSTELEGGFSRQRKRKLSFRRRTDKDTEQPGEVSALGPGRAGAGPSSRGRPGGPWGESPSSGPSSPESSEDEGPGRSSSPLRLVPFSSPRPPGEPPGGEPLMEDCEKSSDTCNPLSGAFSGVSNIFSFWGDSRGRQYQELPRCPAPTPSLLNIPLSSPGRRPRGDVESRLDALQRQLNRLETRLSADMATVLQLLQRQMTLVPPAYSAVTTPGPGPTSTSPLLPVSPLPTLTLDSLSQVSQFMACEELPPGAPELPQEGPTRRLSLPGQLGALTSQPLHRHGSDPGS

Structure (SMILES) | IC50 [µM]
CC(C1CC2CCC1C2)n1c(SCc2ccccc2)nnc1-c1ccco1 (stereo not drawn) | 9.77
CC(C1CC2CCC1C2)n1c(SCC(=O)c2ccc3c(c2)OCO3)nnc1-c1ccco1 (stereo not drawn) | 3.45
COc1ccc(C(=O)CSc2nnc(-c3ccco3)n2C(C)C2CC3CCC2C3)cc1 (stereo not drawn) | 20.1
CC(C1CC2CCC1C2)n1c(SCC(=O)c2ccccc2)nnc1-c1ccco1 (stereo not drawn) | 23.9
COc1ccc(C(=O)CSc2nnc(-c3ccco3)n2C(C)C2CC3CCC2C3)cc1OC (stereo not drawn) | 13.6
COc1cccc(C(=O)CSc2nnc(-c3ccco3)n2C(C)C2CC3CCC2C3)c1 (stereo not drawn) | 17.2
COc1ccc(CCSc2nnc(-c3ccco3)n2C(C)C2CC3CCC2C3)cc1OC (stereo not drawn) | 16.7

Same assay, conditions: hERG-expressing cells, FluxOR thallium flux fluorescence; at 30 µM (top of the series)

Structure (SMILES) | flux ratio, lower = inhibition
CC(C)Oc1ccccc1C(=O)Nc1cccc(NC(=O)c2ccccc2OC(F)(F)F)c1 | inactive
CC(C1CC2CCC1C2)n1c(-c2ccncc2)n[nH]c1=S (stereo not drawn) | inactive
S=c1[nH]nc(-c2ccco2)n1C1CC2CCC1C2 (stereo not drawn) | inactive
CC(C1CC2CCC1C2)n1c(SCC#N)nnc1-c1cccs1 (stereo not drawn) | inactive
CC(CCC1CCCC1)n1c(-c2ccco2)n[nH]c1=S (stereo not drawn) | inactive
COc1ccccc1C(=O)Nc1cc(NC(=O)c2ccccc2C(C)C)ccc1F | inactive
COc1cc(OC)cc(-c2n[nH]c(=S)n2C(C)C2CC3CCC2C3)c1 (stereo not drawn) | inactive
S=c1[nH]nc(-c2ccco2)n1CC1CC2CCC1C2 (stereo not drawn) | inactive
C[C@@H](C1CCCCC1)n1c(-c2ccco2)n[nH]c1=S | inactive
CC(C1CC2CCC1C2)n1c(-c2cccn2C)n[nH]c1=S (stereo not drawn) | inactive
CC(C1CC2CCC1C2)n1c(-c2ccccn2)n[nH]c1=S (stereo not drawn) | inactive
CC(c1cccc2ccccc12)n1c(-c2ccco2)n[nH]c1=S (stereo not drawn) | inactive
CC(C1CC2CCC1C2)n1c(SC(F)F)nnc1-c1ccco1 (stereo not drawn) | inactive
CC(C1C2CCC1CC2)n1c(-c2ccco2)n[nH]c1=S (stereo not drawn) | inactive
CC(C1CC2CCC1C2)n1cnnc1-c1ccco1 (stereo not drawn) | inactive
CC(NC(=O)c1ccco1)C1CC2CCC1C2 (stereo not drawn) | inactive
CC(C1CC2CCC1C2)n1c(-c2ccco2)nnc1C(F)(F)F (stereo not drawn) | inactive
CC(C1CC2CCC1C2)n1c(-c2cccnc2)n[nH]c1=S (stereo not drawn) | inactive

Structure (SMILES) | flux ratio, lower = inhibition
CC(C1CC2CCC1C2)n1c(-c2ccc(N(C)C)cc2)n[nH]c1=S (stereo not drawn) | inactive
COc1cccc(-c2nnc(S(C)(=O)=O)n2C(C)C2CC3CCC2C3)c1 (stereo not drawn) | inactive
CC(C1CC2CCC1C2)n1c(-c2ccco2)n[nH]c1=S (stereo not drawn) | inactive
COc1ccccc1C(=O)Nc1cccc(NC(=O)c2cccc3ccccc23)c1 | inactive
CC(C1CC2CCC1C2)N(C)C(=O)c1ccco1 (stereo not drawn) | inactive
C[C@H](C1CCCCC1)n1c(-c2ccco2)n[nH]c1=S | inactive
CC(C1CC2CCC1C2)n1c(-c2cccc(F)c2)n[nH]c1=S (stereo not drawn) | inactive
COc1cccc(-c2n[nH]c(=S)n2C(C)C2CC3CCC2C3)c1OC (stereo not drawn) | inactive
CC(C1CCCCC1)n1c(-c2ccco2)n[nH]c1=S (stereo not drawn) | inactive
CC(CC1CC2CCC1C2)n1c(-c2ccco2)n[nH]c1=S (stereo not drawn) | inactive
CC(C1CC2CCC1C2)n1c(-c2ccccc2F)n[nH]c1=S (stereo not drawn) | inactive
CSc1nnc(-c2ccco2)n1C(C)C1CC2CCC1C2 (stereo not drawn) | inactive
CC(C1CC2CCC1C2)n1c(-c2cccs2)n[nH]c1=S (stereo not drawn) | inactive
CC(C1CC2CCC1C2)n1c(-c2cccc(N(C)C)c2)n[nH]c1=S (stereo not drawn) | inactive
COc1cccc(Cc2n[nH]c(=S)n2C(C)C2CC3CCC2C3)c1 (stereo not drawn) | inactive
CC(C1CC2CCC1C2)n1c(SCC(=O)c2ccc(Cl)c(Cl)c2)nnc1-c1ccco1 (stereo not drawn) | inactive
CC(C1CC2CCC1C2)n1c(-c2ccco2)n[nH]c1=O (stereo not drawn) | inactive
CC(C)c1ccccc1C(=O)Nc1cccc(NC(=O)c2ccccc2OC(F)(F)F)c1 | inactive
